Reference: PMC6352943, “Novel pyrazolo[3,4-d]pyrimidines: design, synthesis, anticancer activity, dual EGFR/ErbB2 receptor tyrosine kinases inhibitory activity, effects on cell cycle profile and caspase-3-mediated apoptosis” (Journal of Enzyme Inhibition and Medicinal Chemistry, 2019)

Assays:
TK-10 = test: NCI 60 cell line single dose screen (SRB); format: cell-based; details: Homo sapiens; TK-10 (renal cancer), single dose 10^−5 M, 48 h; read-out: Growth inhibition percentage
Method in brief: (§1)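 Cells were plated and grown 24 h at 37 °C, 5% CO2 before compound addition from DMSO stock, then exposed 48 h. Adherent cells were fixed with cold TCA (final 10%) and suspension cells with 16% TCA. SRB-stained protein was read at 515 nm and percent growth was calculated against time-zero and untreated plates.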

MDA-MB-231/ATCC = test: NCI 60 cell line single dose screen (SRB); format: cell-based; details: Homo sapiens; MDA-MB-231/ATCC (breast cancer), single dose 10^−5 M, 48 h; read-out: Growth inhibition percentage
Method in brief: as §1

HS 578T = test: NCI 60 cell line single dose screen (SRB); format: cell-based; details: Homo sapiens; HS 578T (breast cancer), single dose 10^−5 M, 48 h; read-out: Growth inhibition percentage
Method in brief: as §1

SR = test: NCI 60 cell line single dose screen (SRB); format: cell-based; details: Homo sapiens; SR (leukemia), single dose 10^−5 M, 48 h; read-out: Growth inhibition percentage
Method in brief: as §1

RPMI-8226 = test: NCI 60 cell line single dose screen (SRB); format: cell-based; details: Homo sapiens; RPMI-8226 (leukemia), single dose 10^−5 M, 48 h; read-out: Growth inhibition percentage
Method in brief: as §1

SW-620 = test: NCI 60 cell line single dose screen (SRB); format: cell-based; details: Homo sapiens; SW-620 (colon cancer), single dose 10^−5 M, 48 h; read-out: Growth inhibition percentage
Method in brief: as §1

CCRF-CEM = test: NCI 60 cell line single dose screen (SRB); format: cell-based; details: Homo sapiens; CCRF-CEM (leukemia), single dose 10^−5 M, 48 h; read-out: Growth inhibition percentage
Method in brief: as §1

786-0 = test: NCI 60 cell line single dose screen (SRB); format: cell-based; details: Homo sapiens; 786-0 (renal cancer), single dose 10^−5 M, 48 h; read-out: Growth inhibition percentage
Method in brief: as §1

HT29 = test: NCI 60 cell line single dose screen (SRB); format: cell-based; details: Homo sapiens, HT-29; HT29 (colon cancer), single dose 10^−5 M, 48 h; read-out: Growth inhibition percentage
Method in brief: as §1

HL-60(TB) = test: NCI 60 cell line single dose screen (SRB); format: cell-based; details: Homo sapiens; HL-60(TB) (leukemia), single dose 10^−5 M, 48 h; read-out: Growth inhibition percentage
Method in brief: as §1

RXF 393 = test: NCI 60 cell line single dose screen (SRB); format: cell-based; details: Homo sapiens; RXF 393 (renal cancer), single dose 10^−5 M, 48 h; read-out: Growth inhibition percentage
Method in brief: as §1

MALME-3M = test: NCI 60 cell line single dose screen (SRB); format: cell-based; details: Homo sapiens; MALME-3M (melanoma), single dose 10^−5 M, 48 h; read-out: Growth inhibition percentage
Method in brief: as §1

SK-OV-3 = test: NCI 60 cell line single dose screen (SRB); format: cell-based; details: Homo sapiens; SK-OV-3 (ovarian cancer), single dose 10^−5 M, 48 h; read-out: Growth inhibition percentage
Method in brief: as §1

ACHN = test: NCI 60 cell line single dose screen (SRB); format: cell-based; details: Homo sapiens; ACHN (renal cancer), single dose 10^−5 M, 48 h; read-out: Growth inhibition percentage
Method in brief: as §1

NCI-H522 = test: NCI 60 cell line single dose screen (SRB); format: cell-based; details: Homo sapiens; NCI-H522 (non-small cell lung cancer), single dose 10^−5 M, 48 h; read-out: Growth inhibition percentage
Method in brief: as §1

NCI-H23 = test: NCI 60 cell line single dose screen (SRB); format: cell-based; details: Homo sapiens; NCI-H23 (non-small cell lung cancer), single dose 10^−5 M, 48 h; read-out: Growth inhibition percentage
Method in brief: as §1

Row | SMILES | inhibition at 10 µM (TK-10) [%] | inhibition at 10 µM (MDA-MB-231/ATCC) [%] | inhibition at 10 µM (HS 578T) [%] | inhibition at 10 µM (SR) [%] | inhibition at 10 µM (RPMI-8226) [%] | inhibition at 10 µM (SW-620) [%] | inhibition at 10 µM (CCRF-CEM) [%] | inhibition at 10 µM (786-0) [%] | inhibition at 10 µM (HT29) [%] | inhibition at 10 µM (HL-60(TB)) [%] | inhibition at 10 µM (RXF 393) [%] | inhibition at 10 µM (MALME-3M) [%] | inhibition at 10 µM (SK-OV-3) [%] | inhibition at 10 µM (ACHN) [%] | inhibition at 10 µM (NCI-H522) [%] | inhibition at 10 µM (NCI-H23) [%] | melting point [°C]
1 | Cc1nn(-c2ccc(F)cc2)c2nc[nH]c(=O)c12 [Compound 3, 1–(4-Fluorophenyl)-3-methyl-1H-pyrazolo[3,4-d]pyrimidin-4(5H)-one] | -3.17 | -9.78 | 0.13 | -1.58 | -10.2 | -12.3 | -1.13 | 1.16 | 3.83 | 6.74 | -11.4 | -8.22 | -2.82 | -4.68 | 4.92 | 4.09 | > 300
2 | Cc1nn(-c2ccc(F)cc2)c2ncnc(N)c12 [Compound 4, 1–(4-Fluorophenyl)-3-methyl-1H-pyrazolo[3,4-d]pyrimidin-4-amine] | -4.14 | -10.8 | -4.94 | 3.35 | -17.5 | -18.7 | -12.7 | 9.41 | 3.34 | 7.87 | -17.3 | 5.86 | -5.01 | 0.98 | 6.49 | 4.73 | > 300
3 | Cc1nn(-c2ccc(F)cc2)c2nc(N)nc(N)c12 [Compound 5, 1–(4-Fluorophenyl)-3-methyl-1H-pyrazolo[3,4-d]pyrimidine-4,6-diamine] | -13 | -9.11 | -3.27 | -1.68 | -3.69 | -16.8 | -16.8 | 2.79 | -6.5 | 8.85 | -13 | -7.8 | -6.26 | -3.79 | 2.08 | 11.8 | > 300
4 | Cc1ccc(Nc2ncnc3c2c(C)nn3-c2ccc(F)cc2)cc1 [Compound 7c, 1–(4-Fluorophenyl)-3-methyl-N-(p-tolyl)-1H-pyrazolo[3,4-d]-pyrimidin-4-amine] | 9.04 | -2.67 | 0.7 | 6.02 | -4.47 | -8.11 | -8.18 | 0.56 | 11.7 | 16 | -13.7 | 1.7 | -16.7 | -12.2 | 11 | 4.63 | 
5 | Cc1nn(-c2ccc(F)cc2)c2ncnc(Nc3ccc(F)c(Cl)c3)c12 [Compound 7d, N-(3-Chloro-4-fluorophenyl)-1–(4-fluorophenyl)-3-methyl-1H-pyrazolo[3,4-d] pyrimidin-4-amine] | -6.68 | 14.2 | 21.5 | 25.4 | 9.77 | 11.1 | 0.7 | 21.3 | 14.4 | 15 | -0.39 | 1.56 | 13.9 | 60.4 | 10.4 | 7.53 | 
6 | Cc1nn(-c2ccc(F)cc2)c2ncnc(N3CCOCC3)c12 [Compound 8a, 1–(4-Fluorophenyl)-3-methyl-4-morpholino-1H-pyrazolo[3,4-d]pyrimidine] | 9.75 | -10.4 | -4.78 | 1.18 | 2 | -4.76 | 2.31 | 10.6 | 7.56 | 22.5 | -15.7 | -10.5 | -7.07 | -10.3 | 8.03 | 0.28 | 
7 | Cc1nn(-c2ccc(F)cc2)c2ncnc(N3CCN(c4ccc(Cl)cc4)CC3)c12 [Compound 8c, 4–(4-(4-Chlorophenyl)piperazin-1-yl)-1–(4-fluorophenyl)-3-methyl-1H-pyrazolo[3,4-d]pyrimidine] | -30.9 | 7.92 | 3.74 | 11 | -8.37 | -3.16 | -8.74 | -2.04 | 5.97 | 25.5 | -16.5 | 4.22 | 12.6 | 2.13 | 8.23 | 20.7 | 167 to 169
8 | COc1ccc(N2CCN(c3ncnc4c3c(C)nn4-c3ccc(F)cc3)CC2)cc1 [Compound 8d, 1–(4-Fluorophenyl)-4–(4-(4-methoxyphenyl)piperazin-1-yl)-3-methyl-1H-pyrazolo[3,4-d]pyrimidine] | -48 | 2.36 | 5.99 | 8.97 | 6.45 | -0.63 | 0.86 | -4.57 | -1.26 | 11.8 | -9.45 | 5.14 | 3.69 | -0.34 | 3.59 | 9.95 | 
9 | Cc1nn(-c2ccc(F)cc2)c2ncnc(NN)c12 [Compound 9, 1–(4-Fluorophenyl)-4-hydrazinyl-3-methyl-1H-pyrazolo[3,4-d]-pyrimidine] | -51.2 | 23.1 | -4.22 | 20.2 | -6.21 | -8.79 | 30.9 | -3.72 | 1.62 | 11.8 | 5.47 | 19 | 7.98 | 2.07 | 10.3 | 19.1 | 208 to 210
10 | COc1cc(C=NNc2ncnc3c2c(C)nn3-c2ccc(F)cc2)ccc1O [Compound 10b, 1–(4-Fluorophenyl)-4–(2-(4-hydroxy-3-methoxybenzylidene)-hydrazinyl)-3-methyl-1H-pyrazolo[3,4-d]pyrimidine] | 11.3 | 15.6 | 0.89 | 22.9 | 7.52 | -30.9 | 38 | 11.3 | 7.7 | 1.69 | 4.9 | -12.4 | 0.81 | 7.34 | 27.1 | 9.39 | 221 to 223
11 | COc1cc(C=NNc2ncnc3c2c(C)nn3-c2ccc(F)cc2)cc(OC)c1OC [Compound 10c, 1–(4-Fluorophenyl)-3-methyl-4–(2-(3,4,5-trimethoxybenzylidene)-hydrazinyl)-1H-pyrazolo[3,4-d]pyrimidine] | -36.3 | 16.5 | 13.9 | 13.7 | 1.29 | -11.7 | 4.81 | 1.85 | 8.83 | -4.11 | 3.39 | 12.6 | 7.06 | 4.01 | 7.26 | 14.2 | 222 to 224
